Assay results taken from the NIST ThermoML archive (doi:10.1021/acs.jced.8b00765).
Values joined by “and” are separate entries in the source; they are usually repeats but may differ in a detail not shown here. Equal entries are not always repeated.

Tests used:
[1] = refractive index (Na D-line) (dimensionless); settings: 293.15 K; 101.33 kPa; Liquid; Standard Abbe refractometry
[2] = Liquid; for vapor or sublimation pressure: Closed cell (Static) method; for mass density: 101.33 kPa, Vibrating tube method

C1CCCCC1 [cyclohexane]
Settings	refractive index
[1]	1.426

[2]
Settings	mass density [kg/m3]	vapor or sublimation pressure [kPa]
293.17 K	–	10.4
293.21 K	–	10.6
298.18 K	–	13.4
298.19 K	–	13.1
303.16 K	–	16.4
303.18 K	–	16.4
308.15 K	765	20.3
313.17 K	–	24.9

C=CCCCC [hex-1-ene]
Settings	refractive index
[1]	1.388

[2]
Settings	mass density [kg/m3]	vapor or sublimation pressure
293.18 K	–	19.9 kPa and 20 kPa
298.18 K	–	24.8 kPa
303.16 K	–	30.5 kPa
303.17 K	–	30.6 kPa
308.16 K	–	37.2 kPa
313.15 K	655	45.1 kPa
313.16 K	–	45.1 kPa

CCCCC [pentane]
Settings	refractive index
[1]	1.358

[2]
Settings	mass density [kg/m3]	vapor or sublimation pressure [kPa]
288.18 K	–	46.5
293.15 K	626	–
293.18 K	–	56.6
293.2 K	–	56.6
298.18 K	–	68.5
298.19 K	–	68.5
303.17 K	–	82.2
303.18 K	–	82.2
308.17 K	–	97.9

CC(C)O [propan-2-ol]
Settings	refractive index
[1]	1.377

[2]
Settings	mass density [kg/m3]	vapor or sublimation pressure [kPa]
293.16 K	–	4.2
293.18 K	–	4.2
298.17 K	–	5.8
303.15 K	–	7.8
303.16 K	–	7.9
308.15 K	–	10.5
313.14 K	–	13.9
313.15 K	768	–
313.16 K	–	14
